Experimental data from paper PMC6374638, “Evolutionary Relationships Between the Laccase Genes of Polyporales: Orthology-Based Classification of Laccase Isozymes and Functional Insight From Trametes hirsuta” (Frontiers in Microbiology, 2019).
Like-named read-outs stand apart in the source and are kept apart here.

Assays:
rLacC [1] = test system: T1, rLacC; experiment: spectrophotometric oxidation assay, […] nm, non-linear fit; type: biochemical, Trametes hirsuta; details: 0.1 M citrate-phosphate pH 4.5, 24°C
T1 construct: gene lacC; recombinant secreted laccase, obtained previously (Savinova et al., 2017)

rLacC [2] = test system: T1, rLacC; experiment: as above; type: biochemical, Trametes hirsuta; details: 0.1 M citrate-phosphate pH 4.5, 24°C; remark: listed apart in the source
rLacC [3] = test system: T1, rLacC; experiment: as above; type: biochemical, Trametes hirsuta; details: 0.1 M citrate-phosphate pH 4.5, 24°C; remark: listed apart in the source
rLacC [4] = test system: T2, rLacC; details: read-out: KM, μM / rLacC; 0.1 M citrate-phosphate pH 4.5, 24°C
T2 construct: gene lacC

rLacC [5] = test system: T1, rLacC; experiment: spectrophotometric oxidation assay, […] nm, non-linear fit; type: biochemical, Trametes hirsuta; details: 0.1 M citrate-phosphate pH 4.5, 24°C; remark: listed apart in the source
LacA = molecular target: T3, LacA (Trametes hirsuta, UniProt A0A0A7M685); experiment: as above; type: biochemical; details: 0.1 M citrate-phosphate pH 4.5, 24°C; cited from earlier work
T3 construct: native major secreted laccase, purified previously (Savinova et al., 2017)
T3 sequence (A0A0A7M685 22-520): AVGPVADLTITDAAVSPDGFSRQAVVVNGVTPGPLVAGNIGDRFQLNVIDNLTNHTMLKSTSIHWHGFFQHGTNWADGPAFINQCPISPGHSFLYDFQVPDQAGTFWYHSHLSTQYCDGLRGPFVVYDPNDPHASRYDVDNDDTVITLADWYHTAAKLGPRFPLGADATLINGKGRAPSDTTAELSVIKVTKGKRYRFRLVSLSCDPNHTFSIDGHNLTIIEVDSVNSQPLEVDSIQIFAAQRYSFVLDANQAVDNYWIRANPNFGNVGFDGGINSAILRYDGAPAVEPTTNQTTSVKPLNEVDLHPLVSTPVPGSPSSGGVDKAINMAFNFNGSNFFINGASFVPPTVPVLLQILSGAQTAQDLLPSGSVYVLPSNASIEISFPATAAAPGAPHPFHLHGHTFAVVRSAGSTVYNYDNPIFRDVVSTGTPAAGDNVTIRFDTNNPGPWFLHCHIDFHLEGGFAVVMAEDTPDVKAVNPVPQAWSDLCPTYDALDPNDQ

Work on `COc1cccc(OC)c1O` [2,6-DMP, 2,6-dimethoxyphenol] yielded a Km (rLacC [1]) of 589 ± 75 µM.
In the case of `COc1ccccc1O` [Guaiacol], the Km (rLacC [2]) is reported as 15700 ± 337 µM.
For `Oc1ccccc1O` [Catechol], the Km (rLacC [3]) was 16300 ± 1720 µM.
`COc1cc(/C=C/C(=O)O)ccc1O` [Ferulic acid] showed a Km (rLacC [4]) of 173 ± 38 µM.
For `COc1cc(/C=C/C(=O)O)cc(OC)c1O` [Synapic acid], the Km (rLacC [5]) is given as 71 ± 14 µM and the Km (LacA) is given as 17 ± 2 µM.
